Data reported in patent publication US9777002B2, “Inhibitors of the renal outer medullary potassium channel” (Merck Sharp & Dohme Corp., priority 2012, dated 2017).

Target: T1, hROMK (hKir1.1) (Homo sapiens, UniProt P48048)
T1 construct: expressed in transfected cells
T1 sequence (P48048 1-391): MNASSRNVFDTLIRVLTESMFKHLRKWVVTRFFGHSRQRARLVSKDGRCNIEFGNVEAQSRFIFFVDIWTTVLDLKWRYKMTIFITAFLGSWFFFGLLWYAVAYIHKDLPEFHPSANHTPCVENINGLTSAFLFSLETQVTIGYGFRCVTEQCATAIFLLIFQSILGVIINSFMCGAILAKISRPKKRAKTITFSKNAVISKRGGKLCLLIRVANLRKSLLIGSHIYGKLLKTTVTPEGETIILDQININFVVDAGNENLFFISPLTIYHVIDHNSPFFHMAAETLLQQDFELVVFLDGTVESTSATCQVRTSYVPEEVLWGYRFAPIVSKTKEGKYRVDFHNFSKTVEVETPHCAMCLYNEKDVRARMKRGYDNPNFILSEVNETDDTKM
Test: Thallium Flux Assay
Format: cell-based
Conditions: HEK293 cells stably expressing hROMK (hKir1.1)
Method: Cell Culture Conditions—HEK293 cells stably expressing hROMK (hKir1.1) were grown at 37° C. in a 10% CO2 humidified incubator in complete growth media: Dulbecco's Modified Eagle Medium supplemented with non-essential amino acids, Penicillin/Streptomycin/Glutamine, G418 and FBS. At >80% confluency, aspirate the media from the flask and rinse with 10 mL Calcium/Magnesium-free PBS. Add 5 mL of 1× trypsin (prepared in Ca/Mg Free PBS) to T-225 flask and return flask to 37° C./CO2 incubator for 2-3 minutes. To dislodge the cell, gently bang the side of the flask with your hand. Triturate the cells completely and then transfer the cells to 25 mL complete media. Centrifuge at 1,500 rpm for 6 min followed by resuspension in complete growth media and determine cell concentration. For typical re-seeding, 4E6 cells/T-225 flask will attain >80% confluency in 4 days. Under ideal growth conditions and appropriate tissue culture practices, this cell line is stable for 40-45 passages.
FluxOR Kit Components (Invitrogen F10017)
• FluxOR™ Reagent (Component A) • FluxOR™ Assay Buffer (Component B)—10× Concentrate • PowerLoad™ Concentrate (Component C)—100× Concentrate • Probenecid (Component D)—Lyophilized sample is kept at −20° C. Water soluble, 100× after solubilization in 1 mL water. Store at 4° C. • FluxOR™ Chloride-free Buffer (Component E)—5× Concentrate • Potassium sulfate (K2SO4) Concentrate (Component F)—125 mM in water. Store at 4° C. • Thallium sulfate (Tl2SO4) Concentrate (Component G)—50 mM in water. Store at 4° C. • DMSO (dimethyl sulfoxide, Component H)—1 mL (100%) Reagent Preparation: FluxOR Working Solutions • 1000× FluxOR™ Reagent: Reconstitute a vial of component A in 100 μl DMSO; Mix well; Store 10 μl aliquots at −20° C. • 1× FluxOR™ Assay Buffer: Dilute Component B 10-fold with water; Adjust pH to 7.4 with Hepes/NaOH; Filter and store at 4° C. • Probenecid/Assay Buffer: 100 mL of 1× FluxOR™ Assay Buffer; 1 mL of reconstituted component D; Store at 4° C. • Loading Buffer (per microplate): 10 μl 1000× FluxOR™ Reagent; 100 μl component C; 10 mL Probenecid/Assay Buffer • Compound Buffer (per microplate): 20 mL Probenecid/Assay Buffer; 0.3 mM ouabain (10 mM ouabain in water can be stored in amber bottle/aluminum foil at room temperature); Test compound • 1× FluxOR™ Chloride-Free Buffer: Prepare 1× working solution in water. Can be stored at room temperature • Stimulant Buffer (prepared at 5× final concentration in 1× FluxOR™Chloride-Free Buffer): 7.5 mM Thallium sulfate and 0.75 mM Potassium sulfate (to give a final assay concentration of 3 mM Thallium/0.3 mM Potassium). Store at 4° C. when not in use. If kept sterile, this solution is good for months.
Assay Protocol—The ROMK channel functional thallium flux assay is performed in 384 wells, using the FLIPR-Tetra instrument. HEK-hKir1.1 cells are seeded in Poly-D-Lysine microplates and kept in a 37° C.-10% CO2 incubator overnight. On the day of the experiment, the growth media is replaced with the FluxOR™ reagent loading buffer and incubated, protected from light, at ambient temperature (23-25° C.) for 90 min. The loading buffer is replaced with assay buffer± test compound followed by 30 min incubation at ambient temperature, where the Thallium/Potassium stimulant is added to the microplate.
• 1. Seed HEK-hKir1.1 cells (50 μl at 20,000 cells/well) in 384-well PDL coated Microplates • 2. Allow cells to adhere overnight in humidified 37° C./10% CO2 incubator • 3. Completely remove cell growth media from microplate and replace with 25 μl loading buffer • 4. Incubate Microplate at room temperature, protected form light, for 90 min • 5. Remove loading buffer and replace with 25 μl 1× Assay Buffer±test compound. • 6. Incubate microplate at room temperature, protected from light, for 30 min • 7. At FLIPR-Tetra 384: Add stimulant (Thallium/Potassium) solution to microplate and monitor fluorescence. Excitation=400 nm, Emission=460 & 580 nm. Collect data for ˜10 min. […]

Structure (SMILES) | IC50
Cc1c([C@@H](O)CN2CC3C(C2)C3NC(=O)c2ccc(C#N)cn2)ccc2c1COC2=O (stereo partly drawn) [Example 33, 5-Cyano-N-(3-((R)-2-hydroxy-2-(4-methyl-1-oxo-1,3-dihydroisobenzofuran-5-yl)ethyl)-3-azabicyclo[3.1.0]hexan-6-yl)picolinamide] | 60 nM
Cc1nc(C(=O)N[C@H]2CCN(C[C@H](O)c3ccc4c(c3C)COC4=O)C[C@H]2F)ccc1C#N (single isomer, unassigned) [44 A] | 570 nM
Cc1c([C@@H](O)CN2CCC(NC(=O)c3cccc(-n4cnnn4)c3)CC2)ccc2c1COC2=O [Example 36, (R)-N-(1-(2-Hydroxy-2-(4-methyl-1-oxo-1,3-dihydroisobenzofuran-5-yl)ethyl)piperidin-4-yl)-3-(1H-tetrazol-1-yl)benzamide] | 450 nM
Cc1c([C@@H](O)CN2CCC(NC(=O)c3ccc(-n4cnnn4)cc3)CC2)ccc2c1COC2=O [Example 34, (R)-N-(1-(2-Hydroxy-2-(4-methyl-1-oxo-1,3-dihydroisobenzofuran-5-yl)ethyl)piperidin-4-yl)-4-(1H-tetrazol-1-yl)benzamide] | 230 nM
Cc1c([C@@H](O)CN2CCC(NC(=O)c3cnc(-n4cnnn4)cn3)CC2)ccc2c1COC2=O [Example 64, (R)-N-(1-(2-Hydroxy-2-(4-methyl-1-oxo-1,3-dihydroisobenzofuran-5-yl)ethyl)piperidin-4-yl)-5-(1H-tetrazol-1-yl)pyrazine-2-carboxamide] | 470 nM
Cc1c([C@@H](O)CN2CCC(C)(CNC(=O)c3ccc(-n4cnnn4)cn3)C2)ccc2c1COC2=O (single isomer, unassigned) [69 A] | 880 nM
Cc1c([C@@H](O)CN2C3CCC2CC(NC(=O)c2ccc(-n4cnnn4)nc2)C3)ccc2c1COC2=O (stereo partly drawn) [Example 82, N-(8-((R)-2-Hydroxy-2-(4-methyl-1-oxo-1,3-dihydroisobenzofuran-5-yl)ethyl)-8-azabicyclo[3.2.1]octan-3-yl)-6-(1H-tetrazol-1-yl)nicotinamide] | 250 nM
Cc1c([C@@H](O)CN2CCC(NC(=O)c3ccc(C#N)cc3F)CC2)ccc2c1COC2=O [Example 45, (R)-4-Cyano-2-fluoro-N-(1-(2-hydroxy-2-(4-methyl-1-oxo-1,3-dihydroisobenzofuran-5-yl)ethyl)piperidin-4-yl)benzamide] | 450 nM
COc1cc(F)c(C#N)cc1C(=O)NC1CCN(C[C@@H](O)c2ccc3c(c2C)COC3=O)CC1 [Example 21, (S)-5-Cyano-4-fluoro-N-(1-(2-hydroxy-2-(4-methyl-1-oxo-1,3-dihydroisobenzofuran-5-yl)ethyl)piperidin-4-yl)-2-methoxybenzamide] | 150 nM
CO[C@@H]1CN(C[C@H](O)c2ccc3c(c2C)COC3=O)CC[C@@H]1NC(=O)c1ccc(-n2cnnn2)nc1 (single isomer, unassigned) [54 B] | 340 nM
Cc1c([C@@H](O)CN2CCCC(C(C)(C)NC(=O)c3ccc(-n4cnnn4)nc3)C2)ccc2c1COC2=O (stereo partly drawn) [Example 80, N-(2-(1-((R)-2-Hydroxy-2-(4-methyl-1-oxo-1,3-dihydroisobenzofuran-5-yl)ethyl)piperidin-3-yl)propan-2-yl)-6-(1H-tetrazol-1-yl)nicotinamide] | 970 nM
Cc1c([C@@H](O)CN2CCC(NC(=O)c3ccc(-c4ccon4)cc3)CC2)ccc2c1COC2=O [Example 35, (R)-N-(1-(2-Hydroxy-2-(4-methyl-1-oxo-1,3-dihydroisobenzofuran-5-yl)ethyl)piperidin-4-yl)-4-(isoxazol-3-yl)benzamide] | 60 nM
Cc1c([C@@H](O)CN2CCC(CNC(=O)c3ccc(-n4cnnn4)nc3)(c3ccccc3)C2)ccc2c1COC2=O (single isomer, unassigned) [81 A] | 620 nM
Cc1c([C@@H](O)CN2CCC(NC(=O)c3ccc(C#N)nc3)C(F)C2)ccc2c1COC2=O (single isomer, unassigned) [46 B] | 650 nM
Cc1c([C@@H](O)CN2CCCC(C)(CNC(=O)c3ccc(-n4cnnn4)nc3)C2)ccc2c1COC2=O (stereo partly drawn) [Example 83, N-((1-((R)-2-Hydroxy-2-(4-methyl-1-oxo-1,3-dihydroisobenzofuran-5-yl)ethyl)-3-methylpiperidin-3-yl)methyl)-6-(1H-tetrazol-1-yl)nicotinamide] | 720 nM
Cc1c([C@@H](O)CN2CCC(C)(CNC(=O)c3ccc(-n4cnnn4)cn3)C2)ccc2c1COC2=O (single isomer, unassigned) [69 B] | 490 nM

Next, values leading:

IC50 | Structure (SMILES)
350 nM | Cc1c(C(O)CN2CCC(NC(=O)c3ccc4c(c3)COC4=O)CC2)ccc(F)c1C#N (stereo not drawn) [Example 13, N-(1-(2-(3-Cyano-4-fluoro-2-methylphenyl)-2-hydroxyethyl)piperidin-4-yl)-1-oxo-1,3-dihydroisobenzofuran-5-carboxamide]
950 nM | Cc1cc(F)c(C(=O)NC2CCN(CCc3ccc4c(c3C)COC4=O)CC2)cc1C#N [Example 18, 5-Cyano-2-fluoro-4-methyl-N-(1-(2-(4-methyl-1-oxo-1,3-dihydroisobenzofuran-5-yl)ethyl)piperidin-4-yl)benzamide]
100 nM | Cc1c(CCN2CCC(NC(=O)c3ccc(-n4cccn4)cc3)CC2)ccc2c1COC2=O [Example 31, N-(1-(2-(4-Methyl-1-oxo-1,3-dihydroisobenzofuran-5-yl)ethyl)piperidin-4-yl)-4-(1H-pyrazol-1-yl)benzamide]
40 nM | Cc1c(C(O)CN2CCC(NC(=O)c3ccc4c(c3)COC4=O)CC2)ccc2c1COC2=O (stereo not drawn) [Example 6, N-(1-(2-Hydroxy-2-(4-methyl-1-oxo-1,3-dihydroisobenzofuran-5-yl)ethyl)piperidin-4-yl)-1-oxo-1,3-dihydroisobenzofuran-5-carboxamide]
460 nM | Cc1c(CCN2CCC(NC(=O)c3ccc4nonc4c3)CC2)ccc2c1COC2=O [Example 8, N-(1-(2-(4-Methyl-1-oxo-1,3-dihydroisobenzofuran-5-yl)ethyl)piperidin-4-yl)benzo[c][1,2,5]oxadiazole-5-carboxamide]
320 nM | C[C@H]1Cc2cc(CCN3CCC(NC(=O)c4ccc5c(c4)COC5=O)CC3)ccc2C(=O)O1 [Example 4, (S)-N-(1-(2-(3-methyl-1-oxoisochroman-6-yl)ethyl)piperidin-4-yl)-1-oxo-1,3-dihydroisobenzofuran-5-carboxamide]
30 nM | Cc1c([C@@H](O)CN2CCC(NC(=O)c3ccc(C#N)cc3)CC2)ccc2c1COC2=O [Example 27, (R)-4-Cyano-N-(1-(2-hydroxy-2-(4-methyl-1-oxo-1,3-dihydroisobenzofuran-5-yl)ethyl)piperidin-4-yl)benzamide]
50 nM | Cc1c(C(O)CN2CCC(NC(=O)c3ccc(C#N)c(F)c3)CC2)ccc2c1COC2=O (stereo not drawn) [Example 16, 4-Cyano-3-fluoro-N-(1-(2-hydroxy-2-(4-methyl-1-oxo-1,3-dihydroisobenzofuran-5-yl)ethyl)piperidin-4-yl)benzamide]
